Test results from US12419871B2, “Biomolecules involved in Alzheimer's disease” (ELECTROPHORETICS LIMITED, priority 2015, dated 2025).
“And” between values parts separate entries of the source, which are not always exact repeats. Equal entries are not always repeated. “Also recorded” adds a separate entry of the source.

Test system: TMHT (Thy-1 Mutated Human Tau) mice
Test: SysQuant analysis of protein and phosphorylation changes in brains of TMHT mice treated with CK1d inhibitors
Type: in vivo, mouse
Conditions: for Mouse brain Log 2 Ck1 inhibitor: 2′,3′-cyclic-nucleotide 3′-phosphodiesterase / Mouse brain Log 2 Ck1 inhibitor: phosphatase 1 regulatory subunit 14A / effect of treatment on protein phosphatase 1 regulatory subunit 14A level in mouse brain (in words) / effect of treatment on 2′,3′-cyclic-nucleotide 3′-phosphodiesterase level in mouse brain (in words): 30 mg/kg; for effect of treatment on protein phosphatase 1 regulatory subunit 14A level in mouse brain (in words) / effect of treatment on 2′,3′-cyclic-nucleotide 3′-phosphodiesterase level in mouse brain (in words): TMHT model, treated orally 30 mg/kg; for effect of treatment on protein phosphatase 1 regulatory subunit 14A level in mouse brain (in words): versus vehicle alone (FIG. 5B); for effect of treatment on 2′,3′-cyclic-nucleotide 3′-phosphodiesterase level in mouse brain (in words): versus vehicle alone (FIG. 6B); for number of human tau peptides significantly (p<0.05) regulated in the hippocampi of treated mice: of 124 unique quantified peptides from human tau, 30 mg/kg orally
Procedure: Starting at 8.5 months (±2 weeks) of age, TMHT mice received CK1d inhibitors 2-Methyl-amino-3-[(4-fluorophenyl)carbonyl]indolizine-1-carboxamide (PS278-05), 5-(1,3-benzoxazol-2-yl)-4-(pyridine-4-yl)pyrimidin-2-amine (PS110), compound PF4800567 (3-[(3-Chlorophenoxy)methyl]-1-(tetrahydro-2H-pyran-4-yl)-1H-pyrazolo[3,4-d]pyrimidin-4-amine; Tocris®) or vehicle (0.5% w/v methylcellulose) for 8 weeks (54 applications) at a dosage of 30 mg/kg body weight, orally via gavage.
In total 48 animals were used and allocated to 4 treatment groups.
Brain samples were collected within 10 minutes of euthanasia, washed in ice cold saline, transferred to a clean Eppendorf tube and immediately frozen in liquid nitrogen.
One hippocampus sample (left or right) from each of three animals in each of the vehicle, PS110 and PS278-05 groups were selected for analysis by SysQuant. A pool of all nine samples was also prepared as a reference channel. All TMT® labelling, mixing and mass spectrometry and bioinformatics studies were performed essentially as described in Section 4.1. For peptide and protein identification the UniProtKB mouse database was used, supplemented by inclusion of all human tau isoform entries.
All protein identification, peptide sequence, phosphorylation site information along with quantitative values and biological information relating to the peptide, protein and phosphorylation sites were assembled in a Microsoft Excel file (QuantSheet) to allow structured data analysis based on fold-change, significance, biological function and cellular localisation.
Similarly, the expression levels of total tau and for each phosphorylated serine, threonine and tyrosine amino acid in mouse brains following treatment with vehicle control or the CK1d inhibitors PS278-05 and PS110 were calculated.
All peptides that matched the human MAPT (P10636; SEQ ID NO:29) UniProt sequence and/or the mouse MAPT (P10637) were exported into a separate Microsoft Excel sheet. Ion intensity values for each phosphopeptide were summed and the average calculated for each treatment group (Vehicle control, PS110, PS278-05).

[1] = TMHT mice, hippocampus, 30 mg/kg orally via gavage, 8 weeks

| Structure (SMILES) | Mouse brain Log 2 Ck1 inhibitor: BH3-interacting domain death agonist [1] | Mouse brain Log 2 Ck1 inhibitor: Catenin delta-1 [1] | Mouse brain Log 2 Ck1 inhibitor: Clathrin light chain B [1] | Mouse brain Log 2 Ck1 inhibitor: Guanine nucleotide-binding protein G(q) subunit alpha [1] | Mouse brain Log 2 Ck1 inhibitor: Myelin-associated oligodendrocyte basic protein [1] | Mouse brain Log 2 Ck1 inhibitor: Neutral alpha-glucosidase AB [1] | Mouse brain Log 2 Ck1 inhibitor: Secernin-2 [1] | Mouse brain Log 2 Ck1 inhibitor: Short-chain specific acyl-CoA dehydrogenase, mitochondrial [1] | Mouse brain Log 2 Ck1 inhibitor: Syntaphilin [1] | Mouse brain Log 2 Ck1 inhibitor: Transmembrane protein 119 [1] | Mouse brain Log 2 Ck1 inhibitor: 2′,3′-cyclic-nucleotide 3′-phosphodiesterase [1] | Mouse brain Log 2 Ck1 inhibitor: phosphatase 1 regulatory subunit 14A [1] | effect of treatment on protein phosphatase 1 regulatory subunit 14A level in mouse brain (in words) | effect of treatment on 2′,3′-cyclic-nucleotide 3′-phosphodiesterase level in mouse brain (in words) | number of human tau peptides significantly (p<0.05) regulated in the hippocampi of treated mice (TMHT mice, 8 weeks) | further results |
| --- | --- | --- | --- | --- | --- | --- | --- | --- | --- | --- | --- | --- | --- | --- | --- | --- |
| Nc1ncc(-c2nc3ccccc3o2)c(-c2ccncc2)n1 [PS110, 5-(1,3-benzoxazol-2-yl)-4-(pyridin-4-yl)pyrimidin-2-amine] | −0.53 | −2.26 | 0.70 | 0.82 | 0.84 | 0.52 | −0.76 | 0.54 | −0.71 | −0.66 | 0.63 and 0.57 | 0.71 and 0.69 | altering the concentration or amount; also recorded: upregulated | altering the concentration or amount; also recorded: upregulated | 37 | Mouse brain Log 2 Ck1 inhibitor: Actin, alpha cardiac muscle 1 [1]: 0.58; Mouse brain Log 2 Ck1 inhibitor: Antithrombin-III [1]: 0.57; Mouse brain Log 2 Ck1 inhibitor: Fibrinogen gamma chain [1]: 1.01; Mouse brain Log 2 Ck1 inhibitor: GMP reductase 1 [1]: 0.68; Mouse brain Log 2 Ck1 inhibitor: Insulin-like growth factor-binding protein [1]: −0.53; Mouse brain Log 2 Ck1 inhibitor: KxDL motif-containing protein 1 [1]: −0.58; Mouse brain Log 2 Ck1 inhibitor: Nuclear pore complex protein Nup155 [1]: −0.53; Mouse brain Log 2 Ck1 inhibitor: Protein KIAA1045 [1]: −0.63; Mouse brain Log 2 Ck1 inhibitor: Serum albumin [1]: 0.69; Mouse brain Log 2 Ck1 inhibitor: cAMP-dependent protein kinase type 1 [1]: 0.53; effect of treatment on protein phosphatase 1 regulatory subunit 14A level in mouse brain (in words) (listed as 5-(1,3-benzoxazol-2-yl)-4-(pyridine-4-yl)pyrimidin-2-amine): up-regulation |
| NC(=O)c1c(N)c(C(=O)c2ccc(F)cc2)n2ccccc12 [PS278, 2-amino-3-[(4-fluorophenyl)carbonyl]indolizine-1-carboxamide] | −0.56 | −1.07 | 0.50 | 0.62 | 0.66 | −0.78 | −0.52 | 0.57 | −0.76 | −0.52 | 0.62 and 0.63 | 0.49 and 0.71 |  |  |  | Mouse brain Log 2 Ck1 inhibitor: Centrosomal protein of 170 kDa [1]: −0.51; Mouse brain Log 2 Ck1 inhibitor: Egl nine homolog 1 [1]: -0.73; Mouse brain Log 2 Ck1 inhibitor: Lambda-crystallin homolog [1]: 0.56; Mouse brain Log 2 Ck1 inhibitor: OCIA domain-containing protein 1 [1]: −0.59; Mouse brain Log 2 Ck1 inhibitor: Synaptoporin [1]: 0.72; Mouse brain Log 2 Ck1 inhibitor: Tubulin alpha chain-like 3 [1]: 0.67 |
| CNc1c(C(N)=O)c2ccccn2c1C(=O)c1ccc(F)cc1 [PS278-05, 2-Methyl-amino-3-[(4-fluorophenyl)carbonyl]indolizine-1-carboxamide] |  |  |  |  |  |  |  |  |  |  |  |  | up-regulation; also recorded: altering the concentration or amount; also recorded: upregulated | altering the concentration or amount; also recorded: upregulated | 22 |  |
